Test results taken from US20030087395A1, “Cardiotrophin-like cytokine” (Human Genome Sciences, Inc., priority 1997, published 2003).

Columns and labels:
M1 cells [1] = test: Protein tyrosine phosphorylation after anti-gp130 immunoprecipitation; format: cell-based; details: M1 cells treated with CLC or LIF supernatant; band of apparent molecular mass 32 kDa
Protocol: Because of the wide range of known factors capable of stimulating tyrosine kinase activity, identifying whether CLC or a molecule induced by CLC is capable of activating tyrosine kinase signal transduction pathways is of interest. Therefore, the following protocol is designed to identify such molecules capable of activating the tyrosine kinase signal transduction pathways.
Seed NIH-3T3 cells in 15 cm^2 cell culture plates in DMEM supplemented with Pen/Strep, 10% FBS, 25 mM Hepes. […] At the point the experiment begins, the cells should be 80-90% confluent. Collect M1 cells in 50 ml tube and centrifuge 1000 rpm for 5 min. Resuspend the cell pellet in “quiescing medium” which is RPMI supplemented with Pen/Strep, glutamine. (It is important to note that quiescing medium contains neither serum nor growth factors.) Centrifuge again at 1000 rpm for 5 min to wash the cells. Again, resuspend the cells in quiescing medium. Incubate the M1 cells in quiescing medium for 16 hours at 37° C.
Pre-warm quiescing medium (for Ml cells) and a metal tube rack to 37° C. Pre-cool quiescing media (for NIH-3T3 cells) and sterile Eppendorf tubes containing 0.5 ml of sample. […] Resuspend M1 cells to 5.0×10^7 cells per 0.5 ml quiescing media. Place all tubes on per warmed metal rack and leave at 37° C. until ready to begin. Add samples to these pre-aliquoted tubes. […]

M1 cells [2] = test: M1 cell proliferation by BrdU incorporation; format: cell-based; details: dose of 100 μL, 72 hours
Protocol: The effect of CLC on cellular proliferation can be assayed in M1 cells by BrdU incorporation. 1×10^4 cells/100 μL are dispensed into 96-well cell culture plates and labeled with 10 μL BrdU. CLC is added to the cells at several doses (0, 5, 25, and 100 μL) and LIF is added to the cells as a positive control at a dose of 100 μL. The cells are allowed to grow for 72 hours at 37° C. The amount of BrdU incorporation is determined by the Cell Proliferation ELISA BrdU colorimetric kit (Boehringer Mannheim).

STATS = details: numbers of the STATs activated; adapted from Schidler and Darnell review; cited from earlier work

In the case of “LIF: leukemia inhibitory factor, IL-6 family cytokine used as positive control for CLC [reference compound]”, the “band of tyrosine-phosphorylated protein in cell extracts” value (M1 cells [1]) is listed as “produced a band of phosphorylated protein”, the “inhibition of M1 cell proliferation with respect to the negative control” value (M1 cells [2]) is listed as 4.8 fold and the STATS (STATS) is listed as 1,3.
